Where two headings read alike, the source gives them in different places.
Key:
[1] = tested on: wheat leaf blight-causing microorganisms; experiment: Anti-bacterial effect on wheat leaf blight-causing microorganisms (PDA plate, mycelial growth inhibition); type: cell-based, Septoria tritici; conditions: 1.25 mg/L in PDA plate medium, 25° C., 14 days
Procedure: In Test Examples, an anti-bacterial effect of a compound in accordance with the present invention on the wheat leaf blight-causing microorganisms was tested, and was compared with the anti-bacterial effect of a comparative compound (1).
A dimethyl sulfoxide solution (0.6 ml) containing a compound in accordance with the present invention was added to a PDA medium (potato dextrose agar medium) (60 ml) having about 60° C., and the resultant mixture was mixed thoroughly in a 100-ml conical flask. The mixture was poured into a dish, and was solidified. […]
On the other hand, a subject microorganism previously cultured on a plate medium was cut out with use of a cork borer whose diameter was 4 mm, and the wheat leaf blight-causing microorganism on the plate medium thus cut out was inoculated to the chemical-containing plate medium described above. After such inoculation, the chemical-containing plate medium was incubated at 25° C. for 14 days, and then diameters of its flora were measured. A % mycelial growth inhibition was calculated with use of the formula. R=100(dc−dt)/dc (where R=% mycelial extension inhibition, dc=flora diameter in untreated plate, dt=flora diameter in treated plate)
The results obtained as described above were evaluated on a five-point scale according to the following criteria.
• 5: % Mycerial growth inhibition of 80% or higher • 4: % Mycerial growth inhibition of less than 80 to 60% or higher • 3: % Mycerial growth inhibition of less than 60 to 40% or higher • 2: % Mycerial growth inhibition of less than 40 to 20% or higher • 1: % Mycerial growth inhibition of less than 20%

[2] = tested on: wheat-brown-rust-causing microorganisms; experiment: Controlling effect on wheat brown rust (spray, pot test); type: in vivo, Puccinia recondita; conditions: 1 mg/L sprayed at 1,000 L/ha, wheat NORIN No. 61, 9 to 14 days after inoculation
Procedure: Onto a wheat plant (cultivar: NORIN No. 61) grown to the two-leaf stage with use of a square plastic pot (6 cm×6 cm), a wettable formulation such as Formulation Example 1 which was diluted and suspended in water at a concentration of 1 mg/L was sprayed at a rate of 1,000 L/ha. The sprayed leaves were air-dried, and inoculated with spore suspension of wheat-brown-rust-causing microorganisms (adjusted at 200 spores/vision, […] was added at 60 ppm) by spraying, and kept at 25° C. and a high humidity for 48 hours. Thereafter, the plant was kept in a greenhouse. Nine to fourteen days after inoculation, the wheat brown rust lesion degree was evaluated. The protective value was calculated by the following equation. Protective value (%)=(1-mean lesion degree in sprayed plot/mean lesion degree in unsprayed plot)×100 [table] [table]

[3] = tested on: Wheat Septoria nodorum blotch microorganism (Phaeosphaeria nodorum); experiment: Anti-bacterial effect on various microorganisms (plate medium), P.n; type: cell-based
[4] = tested on: Wheat eye spot (Pseudocercoporella herpotrichoides); experiment: Anti-bacterial effect on various microorganisms (plate medium), P.h; type: cell-based
[5] = tested on: Wheat fusarium blight (Fusarium graminearum); type: cell-based
[6] = tested on: Barley loose smut (Ustilago nuda); experiment: Anti-bacterial effect on various microorganisms (plate medium), U.n; type: cell-based
[7] = tested on: Rice blast (Pyricularia oryzae); type: cell-based
[8] = tested on: Rice bakanae disease (Giberella fujikuroi); experiment: Anti-bacterial effect on various microorganisms (plate medium), G.f; type: cell-based
[9] = tested on: Alternaria blotch (Alternaria alternata); experiment: Anti-bacterial effect on various microorganisms (plate medium), A.m; type: cell-based
[10] = tested on: Sclerotinia rot (Sclerotinia sclerotiorum); experiment: Anti-bacterial effect on various microorganisms (plate medium), S.s; type: cell-based
[11] = tested on: Gray mold (Botritis cinerea); experiment: Anti-bacterial effect on various microorganisms (plate medium), B.c; type: cell-based
[12] = tested on: Cucumber fusarium wilt (Fusarium oxysporum); experiment: Anti-bacterial effect on various microorganisms (plate medium), F.c; type: cell-based
[13] = tested on: Barley leaf blotch (Rhynchosporium secalis); experiment: Anti-bacterial effect on various microorganisms (plate medium), R. sec; type: cell-based
[14] = tested on: Wheat pink snow mold (Microdochium nivale); experiment: Anti-bacterial effect on various microorganisms (plate medium), M.n; type: cell-based
[15] = tested on: Rice bacterial seeding blight (Rhizopus oryzae); experiment: Anti-bacterial effect on various microorganisms (plate medium), R.o; type: cell-based

## COC[C@]1(CCl)CC[C@@H](Cc2ccccc2)[C@]1(O)Cn1cncn1 (racemic) [Compound I-187, (1RS,2RS,5SR)-5-benzyl-2-chloromethyl-2-methoxymethyl-1H-[1,2,4]triazole-1-ylmethylcyclopentanol]
[1]
  Growth inhibition grade: 5 (% Mycerial growth inhibition of 80% or higher)
[2]
  Protective value: 4 (61 to 80)
[3]; 1.25 mg/L
  Growth inhibition grade P.n: 4 (% Mycerial growth inhibition of less than 80 to 60% or higher)
[3]; 5 mg/L
  Growth inhibition grade P.n: 5 (% Mycerial growth inhibition of 80% or higher)
[4]; 1.25 mg/L
  Growth inhibition grade P.h: 5 (% Mycerial growth inhibition of 80% or higher)
[4]; 5 mg/L
  Growth inhibition grade P.h: 5 (% Mycerial growth inhibition of 80% or higher)
[5]; 1.25 mg/L
  Growth inhibition grade F.g: 5 (% Mycerial growth inhibition of 80% or higher)
[5]; 5 mg/L
  Growth inhibition grade F.g: 5 (% Mycerial growth inhibition of 80% or higher)
[6]; 1.25 mg/L
  Growth inhibition grade U.n: 5 (% Mycerial growth inhibition of 80% or higher)
[6]; 5 mg/L
  Growth inhibition grade U.n: 5 (% Mycerial growth inhibition of 80% or higher)
[7]; 1.25 mg/L
  Growth inhibition grade P.o: 5 (% Mycerial growth inhibition of 80% or higher)
[7]; 5 mg/L
  Growth inhibition grade P.o: 5 (% Mycerial growth inhibition of 80% or higher)
[8]; 1.25 mg/L
  Growth inhibition grade G.f: 5 (% Mycerial growth inhibition of 80% or higher)
[8]; 5 mg/L
  Growth inhibition grade G.f: 5 (% Mycerial growth inhibition of 80% or higher)
[9]; 1.25 mg/L
  Growth inhibition grade A.m: 4 (% Mycerial growth inhibition of less than 80 to 60% or higher)
[9]; 5 mg/L
  Growth inhibition grade A.m: 5 (% Mycerial growth inhibition of 80% or higher)
[10]; 1.25 mg/L
  Growth inhibition grade S.s: 5 (% Mycerial growth inhibition of 80% or higher)
[10]; 5 mg/L
  Growth inhibition grade S.s: 5 (% Mycerial growth inhibition of 80% or higher)
[11]; 1.25 mg/L
  Growth inhibition grade B.c: 5 (% Mycerial growth inhibition of 80% or higher)
[11]; 5 mg/L
  Growth inhibition grade B.c: 5 (% Mycerial growth inhibition of 80% or higher)
[12]; 1.25 mg/L
  Growth inhibition grade F.c: 5 (% Mycerial growth inhibition of 80% or higher)
[12]; 5 mg/L
  Growth inhibition grade F.c: 5 (% Mycerial growth inhibition of 80% or higher)
[13]; 1.25 mg/L
  Growth inhibition grade R. sec: 5 (% Mycerial growth inhibition of 80% or higher)
[13]; 5 mg/L
  Growth inhibition grade R. sec: 5 (% Mycerial growth inhibition of 80% or higher)
[14]; 1.25 mg/L
  Growth inhibition grade M.n: 5 (% Mycerial growth inhibition of 80% or higher)
[14]; 5 mg/L
  Growth inhibition grade M.n: 5 (% Mycerial growth inhibition of 80% or higher)
[15]; 1.25 mg/L
  Growth inhibition grade R.o: 5 (% Mycerial growth inhibition of 80% or higher)
[15]; 5 mg/L
  Growth inhibition grade R.o: 5 (% Mycerial growth inhibition of 80% or higher)

## COC[C@]1(CCl)CC[C@@H](Cc2ccc(F)cc2)[C@]1(O)Cn1cncn1 (racemic) [Compound I-170, (1RS,2RS,5SR)-5-(4-fluorobenzyl)-2-chloromethyl-2-methoxymethyl-1H-[1,2,4]triazole-1-ylmethylcyclopentanol]
[1]
  Growth inhibition grade: 5 (% Mycerial growth inhibition of 80% or higher)
[2]
  Protective value: 4 (61 to 80)
[3]; 1.25 mg/L
  Growth inhibition grade P.n: 5 (% Mycerial growth inhibition of 80% or higher)
[3]; 5 mg/L
  Growth inhibition grade P.n: 5 (% Mycerial growth inhibition of 80% or higher)
[4]; 1.25 mg/L
  Growth inhibition grade P.h: 5 (% Mycerial growth inhibition of 80% or higher)
[4]; 5 mg/L
  Growth inhibition grade P.h: 5 (% Mycerial growth inhibition of 80% or higher)
[5]; 1.25 mg/L
  Growth inhibition grade F.g: 5 (% Mycerial growth inhibition of 80% or higher)
[5]; 5 mg/L
  Growth inhibition grade F.g: 5 (% Mycerial growth inhibition of 80% or higher)
[6]; 1.25 mg/L
  Growth inhibition grade U.n: 5 (% Mycerial growth inhibition of 80% or higher)
[6]; 5 mg/L
  Growth inhibition grade U.n: 5 (% Mycerial growth inhibition of 80% or higher)
[7]; 1.25 mg/L
  Growth inhibition grade P.o: 5 (% Mycerial growth inhibition of 80% or higher)
[7]; 5 mg/L
  Growth inhibition grade P.o: 5 (% Mycerial growth inhibition of 80% or higher)
[8]; 1.25 mg/L
  Growth inhibition grade G.f: 5 (% Mycerial growth inhibition of 80% or higher)
[8]; 5 mg/L
  Growth inhibition grade G.f: 5 (% Mycerial growth inhibition of 80% or higher)
[9]; 1.25 mg/L
  Growth inhibition grade A.m: 4 (% Mycerial growth inhibition of less than 80 to 60% or higher)
[9]; 5 mg/L
  Growth inhibition grade A.m: 5 (% Mycerial growth inhibition of 80% or higher)
[10]; 1.25 mg/L
  Growth inhibition grade S.s: 5 (% Mycerial growth inhibition of 80% or higher)
[10]; 5 mg/L
  Growth inhibition grade S.s: 5 (% Mycerial growth inhibition of 80% or higher)
[11]; 1.25 mg/L
  Growth inhibition grade B.c: 5 (% Mycerial growth inhibition of 80% or higher)
[11]; 5 mg/L
  Growth inhibition grade B.c: 5 (% Mycerial growth inhibition of 80% or higher)
[12]; 1.25 mg/L
  Growth inhibition grade F.c: 5 (% Mycerial growth inhibition of 80% or higher)
[12]; 5 mg/L
  Growth inhibition grade F.c: 5 (% Mycerial growth inhibition of 80% or higher)
[13]; 1.25 mg/L
  Growth inhibition grade R. sec: 5 (% Mycerial growth inhibition of 80% or higher)
[13]; 5 mg/L
  Growth inhibition grade R. sec: 5 (% Mycerial growth inhibition of 80% or higher)
[14]; 1.25 mg/L
  Growth inhibition grade M.n: 5 (% Mycerial growth inhibition of 80% or higher)
[14]; 5 mg/L
  Growth inhibition grade M.n: 5 (% Mycerial growth inhibition of 80% or higher)
[15]; 1.25 mg/L
  Growth inhibition grade R.o: 5 (% Mycerial growth inhibition of 80% or higher)
[15]; 5 mg/L
  Growth inhibition grade R.o: 5 (% Mycerial growth inhibition of 80% or higher)

## CCOC[C@]1(CCl)CC[C@@H](Cc2ccc(F)cc2)[C@]1(O)Cn1cncn1 (racemic) [Compound I-226, (1RS,2RS,5SR)-5-(4-fluorobenzyl)-2-chloromethyl-2-ethoxymethyl-1H-[1,2,4]triazole-1-ylmethylcyclopentanol]
[1]
  Growth inhibition grade: 5 (% Mycerial growth inhibition of 80% or higher)
[2]
  Protective value: 4 (61 to 80)
[3]; 1.25 mg/L
  Growth inhibition grade P.n: 5 (% Mycerial growth inhibition of 80% or higher)
[3]; 5 mg/L
  Growth inhibition grade P.n: 5 (% Mycerial growth inhibition of 80% or higher)
[4]; 1.25 mg/L
  Growth inhibition grade P.h: 4 (% Mycerial growth inhibition of less than 80 to 60% or higher)
[4]; 5 mg/L
  Growth inhibition grade P.h: 5 (% Mycerial growth inhibition of 80% or higher)
[5]; 1.25 mg/L
  Growth inhibition grade F.g: 5 (% Mycerial growth inhibition of 80% or higher)
[5]; 5 mg/L
  Growth inhibition grade F.g: 5 (% Mycerial growth inhibition of 80% or higher)
[6]; 1.25 mg/L
  Growth inhibition grade U.n: 5 (% Mycerial growth inhibition of 80% or higher)
[6]; 5 mg/L
  Growth inhibition grade U.n: 5 (% Mycerial growth inhibition of 80% or higher)
[7]; 1.25 mg/L
  Growth inhibition grade P.o: 5 (% Mycerial growth inhibition of 80% or higher)
[7]; 5 mg/L
  Growth inhibition grade P.o: 5 (% Mycerial growth inhibition of 80% or higher)
[8]; 1.25 mg/L
  Growth inhibition grade G.f: 5 (% Mycerial growth inhibition of 80% or higher)
[8]; 5 mg/L
  Growth inhibition grade G.f: 5 (% Mycerial growth inhibition of 80% or higher)
[9]; 1.25 mg/L
  Growth inhibition grade A.m: 4 (% Mycerial growth inhibition of less than 80 to 60% or higher)
[9]; 5 mg/L
  Growth inhibition grade A.m: 5 (% Mycerial growth inhibition of 80% or higher)
[10]; 1.25 mg/L
  Growth inhibition grade S.s: 5 (% Mycerial growth inhibition of 80% or higher)
[10]; 5 mg/L
  Growth inhibition grade S.s: 5 (% Mycerial growth inhibition of 80% or higher)
[11]; 1.25 mg/L
  Growth inhibition grade B.c: 5 (% Mycerial growth inhibition of 80% or higher)
[11]; 5 mg/L
  Growth inhibition grade B.c: 5 (% Mycerial growth inhibition of 80% or higher)
[12]; 1.25 mg/L
  Growth inhibition grade F.c: 5 (% Mycerial growth inhibition of 80% or higher)
[12]; 5 mg/L
  Growth inhibition grade F.c: 5 (% Mycerial growth inhibition of 80% or higher)
[13]; 1.25 mg/L
  Growth inhibition grade R. sec: 5 (% Mycerial growth inhibition of 80% or higher)
[13]; 5 mg/L
  Growth inhibition grade R. sec: 5 (% Mycerial growth inhibition of 80% or higher)
[14]; 1.25 mg/L
  Growth inhibition grade M.n: 5 (% Mycerial growth inhibition of 80% or higher)
[14]; 5 mg/L
  Growth inhibition grade M.n: 5 (% Mycerial growth inhibition of 80% or higher)
[15]; 1.25 mg/L
  Growth inhibition grade R.o: 5 (% Mycerial growth inhibition of 80% or higher)
[15]; 5 mg/L
  Growth inhibition grade R.o: 5 (% Mycerial growth inhibition of 80% or higher)
